tested on: Aβ42; assay: Aβ42 IC50 assay (SHSYSY-APP cell-based screening, UCSD sandwich Aβ42 ELISA)
Text: FIG. 8: Representative concentration response curves of Compound 1 using our primary and orthogonal medium throughput SHSYSY-APP cell-based screening assays (10). Compounds are first screened two times in triplicate in our UCSD sandwich Aβ42 ELISA on sequential days and the average of the two assays must be within 3-fold of each other before being entered into the CDD relational database. The UCSD sandwich ELISA assay can easily handle 20 compounds per week. Compounds with Aβ42 IC50 values <100 nM continue through the testing funnel. The Z′ score and the % CV for the UCSD Aβ42 sandwich ELISA assay are 0.8 and 4, respectively. For the Meso Scale triplex assay the Z′ scores are 0.7, 0.9 and 0.6 Aβ42, Aβ40 and Aβ38, respectively and the % CV's are 7, 2 and 1 for Aβ42, Aβ40 and Aβ38, respectively. Aβ total peptides are measured using a sandwich ELISA.
Tabular Results of A1142 Assays Conducted on Compounds of Examples 5-102. Assays are Aβ42 IC50 (nM).

| SMILES | IC50 [nM] |
| --- | --- |
| COc1nc(-c2cc(C)c(NC(C)Cc3ccc(F)cc3)nn2)ccc1-n1cnc(C)c1 (racemic) [Example 54, (+/−)—N-(1-(4-fluorophenyl)propan-2-yl)-6-(6-methoxy-5-(4-methyl-1H-imidazol-1-yl)pyridin-2-yl)-4-methylpyridazin-3-amine] | 29 |
| COc1nc(-c2cc(C)c(NC(C)c3nc4ccccc4o3)nn2)ccc1-n1cnc(C)c1 (racemic) [Example 74, (+/−)—N-(1-(benzo[d]oxazol-2-yl)ethyl)-6-(6-methoxy-5-(4-methyl-1H-imidazol-1-yl)pyridin-2-yl)-4-methylpyridazin-3-amine] | 42 |
| CCc1cc(-c2ccc(-n3cnc(C)c3)c(OC)n2)nnc1N[C@@H](C)c1ccc(F)cc1 [Example 5, (S)-4-Ethyl-N-(1-(4-fluorophenyl)ethyl)-6-(6-methoxy-5-(4-methyl-1H-imidazol-1-yl)pyridin-2-yl)pyridazin-3-amine] | 7.8 |
| CCc1cc(-c2ccc(-n3cnc(C)c3)c(OC)n2)nnc1N[C@@H](C)c1ccccc1 [Example 7, (S)-4-ethyl-6-(6-methoxy-5-(4-methyl-1H-imidazol-1-yl)pyridin-2-yl)-N-(1-phenylethyl)pyridazin-3-amine] | 5.5 |
| CCc1cc(-c2ccc(-n3cnc(C)c3)c(OC)n2)nnc1NCc1ccc(F)cc1 [Example 8, 4-ethyl-N-(4-fluorobenzyl)-6-(6-methoxy-5-(4-methyl-1H-imidazol-1-yl)pyridin-2-yl)pyridazin-3-amine] | 33 |
| CCc1cc(-c2ccc(-n3cnc(C)c3)c(OC)n2)nnc1N[C@H](C)c1ccccc1 [Example 9, (R)-4-ethyl-6-(6-methoxy-5-(4-methyl-1H-imidazol-1-yl)pyridin-2-yl)-N-(1-phenylethyl)pyridazin-3-amine] | 46 |
| CCc1cc(-c2ccc(-n3cnc(C)c3)c(OC)n2)nnc1N[C@H](C)c1ccc(F)cc1 [Example 10, (R)-4-ethyl-N-(1-(4-fluorophenyl)ethyl)-6-(6-methoxy-5-(4-methyl-1H-imidazol-1-yl)pyridin-2-yl)pyridazin-3-amine] | 47.5 |
| COc1nc(-c2cc(C(C)C)c(N[C@@H](C)c3ccc(F)cc3)nn2)ccc1-n1cnc(C)c1 [Example 11, (S)—N-(1-(4-fluorophenyl)ethyl)-4-isopropyl-6-(6-methoxy-5-(4-methyl-1H-imidazol-1-yl)pyridin-2-yl)pyridazin-3-amine] | 7.5 |
| COc1nc(-c2cc(C(C)C)c(N[C@@H](C)c3ccccc3)nn2)ccc1-n1cnc(C)c1 [Example 14, (S)-4-isopropyl-6-(6-methoxy-5-(4-methyl-1H-imidazol-1-yl)pyridin-2-yl)-N-(1-phenylethyl)pyridazin-3-amine] | 7.2 |
| COc1nc(-c2nnc(N[C@@H](C)c3ccc(F)cc3)c(C)c2C)ccc1-n1cnc(C)c1 [Example 15, (S)—N-(1-(4-Fluorophenyl)ethyl)-6-(6-methoxy-5-(4-methyl-1H-imidazol-1-yl)pyridin-2-yl)-4,5-dimethylpyridazin-3-amine] | 67 |
| COc1nc(-c2nnc(N[C@@H](C)c3ccccc3)c(C)c2C)ccc1-n1cnc(C)c1 [Example 17, (S)-6-(6-methoxy-5-(4-methyl-1H-imidazol-1-yl)pyridin-2-yl)-4,5-dimethyl-N-(1-phenylethyl)pyridazin-3-amine] | 37 |
| COc1nc(-c2nnc(NCc3ccc(F)cc3)c(C)c2C)ccc1-n1cnc(C)c1 [Example 18, N-(4-fluorobenzyl)-6-(6-methoxy-5-(4-methyl-1H-imidazol-1-yl)pyridin-2-yl)-4,5-dimethylpyridazin-3-amine] | 82 |
| COc1nc(-c2cc(C)c(N(C)[C@@H](C)c3ccc(F)cc3)nn2)ccc1-n1cnc(C)c1 [Example 19, (S)—N-(1-(4-fluorophenyl)ethyl)-6-(6-methoxy-5-(4-methyl-1H-imidazol-1-yl)pyridin-2-yl)-N,4-dimethylpyridazin-3-amine] | 240 |
| CCN(c1nnc(-c2ccc(-n3cnc(C)c3)c(OC)n2)cc1C)[C@@H](C)c1ccc(F)cc1 [Example 20, (S)—N-ethyl-N-(1-(4-fluorophenyl)ethyl)-6-(6-methoxy-5-(4-methyl-1H-imidazol-1-yl)pyridin-2-yl)-4-methylpyridazin-3-amine] | 132 |
| CC[C@@H](c1ccc(F)cc1)N(C)c1nnc(-c2ccc(-n3cnc(C)c3)c(OC)n2)cc1C [Example 21, (S)—N-(1-(4-fluorophenyl)propyl)-6-(6-methoxy-5-(4-methyl-1H-imidazol-1-yl)pyridin-2-yl)-N,4-dimethylpyridazin-3-amine] | 61 |
| COc1nc(-c2ccc(N[C@@H](C)c3ccccc3)nn2)ccc1-n1cnc(C)c1 [Example 22, (S)-6-(6-methoxy-5-(4-methyl-1H-imidazol-1-yl)pyridin-2-yl)-N-(1-phenylethyl)pyridazin-3-amine] | 16 |

| SMILES | IC50 [nM] |
| --- | --- |
| COc1nc(-c2ccc(NC(C)(C)c3ccc(F)cc3)nn2)ccc1-n1cnc(C)c1 [Example 23, N-(2-(4-Fluorophenyl)propan-2-yl)-6-(6-methoxy-5-(4-methyl-1H-imidazol-1-yl)pyridin-2-yl)pyridazin-3-amine] | 22 |
| COc1nc(-c2nnc(N[C@@H](C)c3ccc(F)cc3)cc2C)ccc1-n1cnc(C)c1 [Example 27, (S)—N-(1-(4-fluorophenyl)ethyl)-6-(6-methoxy-5-(4-methyl-1H-imidazol-1-yl)pyridin-2-yl)-5-methylpyridazin-3-amine] | 21 |
| COc1nc(-c2nnc(N[C@@H](C)c3ccc(F)cc3)c3c2CCC3)ccc1-n1cnc(C)c1 [Example 29, (S)—N-(1-(4-Fluorophenyl)ethyl)-4-(6-methoxy-5-(4-methyl-1H-imidazol-1-yl)pyridin-2-yl)-6,7-dihydro-5H-cyclopenta[d]pyridazin-1-amine] | 12.8 |
| COc1nc(-c2cc(C)c(N[C@@H](C)c3ccc(Cl)cc3)nn2)ccc1-n1cnc(C)c1 [Example 31, (S)—N-(1-(4-chlorophenyl)ethyl)-6-(6-methoxy-5-(4-methyl-1H-imidazol-1-yl)pyridin-2-yl)-4-methylpyridazin-3-amine] | 5.8 |
| COc1nc(-c2cc(C)c(N[C@@H](C)c3cccc(Cl)c3)nn2)ccc1-n1cnc(C)c1 [Example 33, (S)—N-(1-(3-chlorophenyl)ethyl)-6-(6-methoxy-5-(4-methyl-1H-imidazol-1-yl)pyridin-2-yl)-4-methylpyridazin-3-amine] | 6.8 |
| COc1nc(-c2cc(C)c(N[C@@H](C)c3ccccc3)nn2)ccc1-n1cnc(C)c1 [Example 35, (S)-6-(6-methoxy-5-(4-methyl-1H-imidazol-1-yl)pyridin-2-yl)-4-methyl-N-(1-phenylethyl)pyridazin-3-amine] | 12 |
| COc1ccc([C@H](C)Nc2nnc(-c3ccc(-n4cnc(C)c4)c(OC)n3)cc2C)cc1 [Example 36, (S)-6-(6-methoxy-5-(4-methyl-1H-imidazol-1-yl)pyridin-2-yl)-N-(1-(4-methoxyphenyl)ethyl)-4-methylpyridazin-3-amine] | 6.5 |
| COc1nc(-c2cc(C)c(N[C@@H](C)c3ccc(C(F)(F)F)cc3)nn2)ccc1-n1cnc(C)c1 [Example 37, (S)-6-(6-methoxy-5-(4-methyl-1H-imidazol-1-yl)pyridin-2-yl)-4-methyl-N-(1-(4-(trifluoromethyl)phenyl)ethyl)pyridazin-3-amine] | 6.3 |
| COc1nc(-c2cc(C)c(N[C@@H](C)c3cccc(F)c3)nn2)ccc1-n1cnc(C)c1 [Example 38, (S)—N-(1-(3-fluorophenyl)ethyl)-6-(6-methoxy-5-(4-methyl-1H-imidazol-1-yl)pyridin-2-yl)-4-methylpyridazin-3-amine] | 7 |
| COc1nc(-c2cc(C)c(N[C@@H](C)c3ccc(F)c(F)c3)nn2)ccc1-n1cnc(C)c1 [Example 39, (S)—N-(1-(3,4-difluorophenyl)ethyl)-6-(6-methoxy-5-(4-methyl-1H-imidazol-1-yl)pyridin-2-yl)-4-methylpyridazin-3-amine] | 6.5 |
| CC[C@H](Nc1nnc(-c2ccc(-n3cnc(C)c3)c(OC)n2)cc1C)c1ccc(F)cc1 [Example 40, (S)—N-(1-(4-fluorophenyl)propyl)-6-(6-methoxy-5-(4-methyl-1H-imidazol-1-yl)pyridin-2-yl)-4-methylpyridazin-3-amine] | 6.5 |
| COc1ccccc1[C@H](C)Nc1nnc(-c2ccc(-n3cnc(C)c3)c(OC)n2)cc1C [Example 41, (S)-6-(6-methoxy-5-(4-methyl-1H-imidazol-1-yl)pyridin-2-yl)-N-(1-(2-methoxyphenyl)ethyl)-4-methylpyridazin-3-amine] | 17.5 |
| COc1nc(-c2cc(C)c(N[C@@H](C)c3ccc(C)cc3)nn2)ccc1-n1cnc(C)c1 [Example 42, (S)-6-(6-methoxy-5-(4-methyl-1H-imidazol-1-yl)pyridin-2-yl)-4-methyl-N-(1-(p-tolyl)ethyl)pyridazin-3-amine] | 7.5 |
| COc1nc(-c2cc(C)c(N[C@@H](C)c3cc(C(F)(F)F)cc(C(F)(F)F)c3)nn2)ccc1-n1cnc(C)c1 [Example 43, (S)—N-(1-(3,5-bis(trifluoromethyl)phenyl)ethyl)-6-(6-methoxy-5-(4-methyl-1H-imidazol-1-yl)pyridin-2-yl)-4-methylpyridazin-3-amine] | 7.5 |
| COc1cccc([C@H](C)Nc2nnc(-c3ccc(-n4cnc(C)c4)c(OC)n3)cc2C)c1 [Example 44, (S)-6-(6-methoxy-5-(4-methyl-1H-imidazol-1-yl)pyridin-2-yl)-N-(1-(3-methoxyphenyl)ethyl)-4-methylpyridazin-3-amine] | 10.5 |
